From US6365616B1, “Methimazole derivatives and tautomeric cyclic thiones to treat autoimmune diseases” (Sentron Medical, Inc., priority 1998, dated 2002) come the findings set out here.

For one experiment, the system named is MHC class I RNA. As to the kind of experiment: Northern analysis of MHC class I RNA levels in FRTL-5 cells. Format: cell-based, rat. The following applies: 40 hours; for inhibition at 1000 µM / inhibition at 5000 µM / inhibition at 100 µM: Rattus norvegicus, FRTL-5.
Experiment [1] relates to swine class I promoter (PD1). As to the kind of experiment: Luciferase assay, FRTL-5 cells stably transfected with class I promoter-luciferase chimeras. To be noted: 6H medium, 40 hours; for inhibition at 10 µM / inhibition at 25 µM / inhibition at 100 µM / inhibition at 1000 µM: Sus scrofa, FRTL-5. The class given is cell-based. The text has this:
The swine PD1 5′-flanking sequence-CAT chimeras (−1100, −203, and −127), as well as two mutants with the CRE site with −107 to −100 bp deleted (−203ΔCRE and −127ΔCRE) were used to create luciferase reporter gene constructs. The inserts were released by restriction enzyme digestion, purified from agarose gel using QIAEX (QIAGEN, Chatsworth, Calif.) and ligated in the NheI-HindIII site of the PGL-2 basic vector (PROMEGA, Madison, Wis.) using a DNA ligation kit from TAKARA biomedicals (TAKARA SHUZO Co). JM109 bacterial competent cells (PROMEGA, Madison, Wis.) were transformed with the ligation reaction and plated in agar plates for 12 h at 37° C. The colonies were picked and screened with minipreps using QIAprep spin plasmid kit (QIAGEN, Chatsworth, Calif.) and restriction enzyme digestion. The plasmids were then purified by CsCl gradient centrifugation.
The PD1-PGL-2 basic constructs and the Class II-PGL-2 basic constructs were stably transfected in the FRTL-5 cells using a Lipofectamine (GIBCO, Life Technologies, Inc.) method. Near confluent cells in 6H medium were cotransfected with 20 μg of plasmid DNA and 2 μg of a pcDNA3neo or a pPUR selection vector (CLONTECH, Palo Alto, Calif.). After 24-48 hours, 400 μg/ml of G418 (GIBCO, Life Technologies, Inc.) or 10 μM of puromycin (SIGMA) were added to the medium. After 3 weeks the antibiotic-resistant colonies were cloned by limiting dilution and screened to determine their interferon sensitivity. At least 5 cell lines of each construct were isolated, each of whose activity was increased by adding 100 U/ml γ interferon to the medium of the cells. The following data (Tables 10-13) were obtained with one clone of each of the class I or class II-luciferase chimera, but were representative of at least three other clones of each.
Luciferase activity was measured using the Luciferase assay system (PROMEGA, Madison, Wis.). Briefly, treated or untreated cells from a 100 mm culture dish were washed with PBS, scraped and collected in microfuge tubes. The pellet was dissolved in 100 μl 1× reporter lysis buffer and incubated at room temperature for 15 minutes. Cells were frozen in dry ice plus ethanol and thawed in water at room temperature. After vortexing for 10 sec, tubes were centrifuged at 12,000×g for 5 min. Twenty μl of the supernatant were mixed with 100 μl of Luciferase assay reagent and immediately placed in a luminometer. Light was measured for a period of 10 sec after a 2 sec delay.
Treatment of cells, maintained either in the presence of TSH or its absence, with 100 U/ml interferon, increased class I and class II promoter activity (Table 10). In this experiment FRTL-5 cells were grown to 80% confluency in 6H medium with TSH then treated with 100 U/ml γ-interferon, 5 mM MMI or both together. Luciferase activity was measured after 40 hours as described. Several points are notable. First, interferon increases both class I and class II promoter activity in the stable transfectants. Second, MMI inhibits both interferon-increased class I and interferon-increased class II promoter activity.

The mark [2] stands for this setting: 100 μM, 100 U/ml γ-interferon, 6H medium (TSH).
Where [3] appears, read: 1 mM, 100 U/ml γ-interferon, 6H medium (TSH), read-out: % inhibition of class I RNA expression (γ-interferon-treated).
Setting [4] is: 1 mM, basal, 5H medium, read-out: % inhibition of class I RNA expression (basal).
Setting [5] is: 10 μM, 100 U/ml γ-interferon, read-out: % inhibition of IFN-increased p(−203)LUC class I promoter activity.
Setting [6] is: 25 μM, read-out: % inhibition of basal p(−203)LUC class I promoter activity.
[7] abbreviates: 100 μM, read-out: % inhibition of basal p(−203)LUC class I promoter activity.
[8] abbreviates: 100 μM, 100 U/ml γ-interferon, read-out: % inhibition of IFN-increased p(−203)LUC class I promoter activity.
[9] abbreviates: 1.0 mM, read-out: % inhibition of basal p(−203)LUC class I promoter activity.
The mark [10] stands for this setting: 1.0 mM, 100 U/ml γ-interferon, read-out: % inhibition of IFN-increased p(−203)LUC class I promoter activity.

Like-named read-outs stand apart in the source and are kept apart here.

Take `Cn1ccn(C)c1=S` [Compound 8, N-Methylmethimazole]: the “% inhibition of class I RNA expression (γ-interferon-treated)” value stood at 9 ± 7% in the experiment on MHC class I RNA (setting [2]); 49 ± 13% with MHC class I RNA (1 mM, 100 U/ml γ-interferon, 6H medium (TSH)); 73 ± 12% in the experiment with MHC class I RNA (5 mM, 100 U/ml γ-interferon, 6H medium (TSH)). The “% inhibition of class I RNA expression (basal)” value in the experiment on MHC class I RNA (100 μM, basal, 5H medium) worked out at 14 ± 12%; with MHC class I RNA (1 mM, basal, 5H medium), 60 ± 6%. The “% inhibition of IFN-increased p(−203)LUC class I promoter activity” value stood at 0% in experiment [1] (10 μM, 100 U/ml γ-interferon); 42 ± 14% in experiment [1] (100 μM, 100 U/ml γ-interferon); 77 ± 10% in experiment [1] (1.0 mM, 100 U/ml γ-interferon). Moreover, the “% inhibition of basal p(−203)LUC class I promoter activity” value in experiment [1] (25 μM) is given as 9 ± 6%; in experiment [1] (100 μM), 44 ± 10%; in experiment [1] (1.0 mM) it was 51 ± 7%.
As a reminder, the inhibition is the drop in the measured response relative to a control, in per cent. Consider `Cc1cnc(S)n1C` [Compound 9, 5-Methylmethimazole], for which the “% inhibition of class I RNA expression (γ-interferon-treated)” value in the experiment on MHC class I RNA (setting [2]) is reported as “None”. For the same compound, the “% inhibition of class I RNA expression (basal)” value in the experiment with MHC class I RNA (100 μM, basal, 5H medium) is on record as “None”. Further, the inhibition at 1000 µM was determined as 9 ± 5% in the experiment with MHC class I RNA (setting [3]), 15 ± 14% with MHC class I RNA (setting [4]), 10 ± 10% in experiment [1] (setting [9]) and 15 ± 11% in experiment [1] (setting [10]). For the same compound, the inhibition at 5000 µM in the experiment on MHC class I RNA (5 mM, 100 U/ml γ-interferon, 6H medium (TSH), read-out: % inhibition of class I RNA expression (γ-interferon-treated)) turned out to be 24 ± 6%; in the experiment on MHC class I RNA (5 mM, basal, 5H medium, read-out: % inhibition of class I RNA expression (basal)), 30 ± 5%. In addition, in experiment [1] (setting [5]), the inhibition at 10 µM amounted to 0%. For the same compound, the inhibition at 25 µM in experiment [1] (setting [6]) came to 0%. Also, the inhibition at 100 µM in experiment [1] (setting [7]) and in experiment [1] (setting [8]) was 0% throughout.
As to `Cn1c(-c2ccccc2)cnc1S` [Compound 10, 5-Phenylmethimazole], the inhibition at 100 µM with MHC class I RNA (100 μM, 100 U/ml γ-interferon, 6H medium (TSH), read-out: % inhibition of class I RNA expression (γ-interferon-treated)) turned out to be 42 ± 14%; with MHC class I RNA (100 μM, basal, 5H medium, read-out: % inhibition of class I RNA expression (basal)), 60 ± 8%; in experiment [1] (setting [7]) it was 51 ± 3%; in experiment [1] (setting [8]) it was 90 ± 17%. The inhibition at 1000 µM in the experiment with MHC class I RNA (setting [3]) is 60 ± 12%; in the experiment with MHC class I RNA (setting [4]), 85 ± 16%; in experiment [1] (setting [9]), 52 ± 8%; in experiment [1] (setting [10]) it was 90 ± 13%. In experiment [1] (setting [5]), the inhibition at 10 µM was found to be 45 ± 7%. In addition, in experiment [1] (setting [6]), the inhibition at 25 µM stood at 41 ± 5%.
